Results from patent publication US8110193B2, “Methods for conditioning a subject for hematopoietic cell transplantation” (City of Hope, priority 2007, dated 2012).

Assays:
[1] = test system: IL-2, IFN-γ, TNF-α, and IL-6; assay: Cytokines in culture supernatant of anti-CD3-stimulated spleen cells (ELISA); assay type: cell-based, mouse (BALB/c); conditions: 24, 48, 72 hours
Experimental: (§1) C. […] There were seven mice in each group.
One of the side effects of anti-CD3-conditioning is the cytokine storm triggered by anti-CD3 activation of T cells. […] After anti-CD3-stimulation, IL-2 concentration peaked at 48 hours, and IFN-γ, TNF-α, and IL-6 all peaked at 72 hours after culture.

[2] = test system: IL-2, IFN-γ, TNF-α, and IL-6; assay: Serum cytokines after anti-CD3 injection (cytokine storm); assay type: in vivo, mouse (BALB/c)
Source text: as §1

[3] = test system: host T cells; assay: Apoptosis and yield of residual host T cells in spleen of conditioned mice; assay type: in vivo, mouse (BALB/c); conditions: low-dose (40 or 100 μg/g) SAHA co-injected with anti-CD3
[4] = Body temperature and tolerability after anti-CD3 injection

## O=C(CCCCCCC(=O)Nc1ccccc1)NO [SAHA, suberoylanilide hydroxamic acid]
[1]; 0.5 μM SAHA
  IL-2, IFN-γ, TNF-α, IL-6 production in culture: reduced cytokine production significantly at all time points
[1]; 1 μM SAHA
  IL-2, IFN-γ, TNF-α, IL-6 production in culture: nearly undetectable
[2]; SAHA 40 μg/g co-injected with anti-CD3 5 μg/g
  reduction of serum IL-2, IFN-γ, TNF-α, IL-6 at peak time points vs anti-CD3 alone: more than 2 fold
[2]; SAHA 200 μg/g co-injected with anti-CD3, data not shown
  serum cytokine reduction compared to SAHA 40 μg/g: reductions in serum cytokine levels that were similar
[3]
  apoptosis of host T cells and yield of residual live T cells in spleen: did not significantly increase apoptosis of host T cells or reduce the yield of residual live T cells
[4]; SAHA 40 μg/g co-injected with anti-CD3
  hypothermia after anti-CD3 injection: significantly reduced hypothermia
[4]; SAHA 200 μg/g co-injected with anti-CD3
  adverse signs: severe diarrhea
[4]; SAHA 200 μg/g co-injected, five days after anti-CD3-conditioning
  mice that died: 30%
